# Results taken from US20140163099A1, “ANTIMICROBIAL COMPOSITION” (TAKASAGO INTERNATIONAL CORPORATION, priority 2011, published 2014).
# Key:
# Format in all cases: cell-based
# [1] = tested on: Corynebacterium minutissimum (NBRC15361T); assay: Growth inhibition activity (MIC, agar) against aerobic bacteria; conditions: strain NBRC15361T; Mueller Hinton Agar, 37 degrees C. overnight
# Description: (§1) In the present invention, the growth inhibition activity, which is an indicator of the antimicrobial activity, is evaluated by determining the Minimum Inhibitory Concentration (MIC) with an agar or liquid medium.
# (§2) In the test for the growth inhibition activity, the following strains were used as skin-related bacteria: • Staphylococcus epidermidis: Staphylococcus epidermidis (JCM2414T and ATCC 12228) • Staphylococcus aureus: Staphylococcus aureus (NBRC12732 and JCM2151) • Skin indigenous bacteria which introduce a superficial infection: Corynebacterium minutissimum (NBRC15361T) • Armpit odor-causing bacteria: Corynebacterium xerosis (JCM1324)
# (§3) The test strains were cultured in the liquid medium which the Bioresource center recommends, and then the test strains were subcultured to a Mueller Hinton Broth (Difco) at 30 degrees C. The grown bacteria were diluted to 10^6 CFU/ml with saline to adjust the bacteria fluids for inoculation.
# (§4) Furthermore, in order to examine the growth inhibition activities against the bacteria by the above cooling agents, the concentration of the cooling agents: (3S)-CA20, (3R)-CA20, CA1, CA5, CA15, CA55 or CA MGH was diluted with ethanol to the required level of concentration for the determining the Minimum Inhibitory Concentration to produce the sample liquids.
# (§5) Next, 100 μL of each sample liquid was added to 10 mL of a Mueller Hinton Agar (Difco) agar medium solution in a soluble state, and each agar medium solution was poured into a petri dish and solidified to prepare test plates having several concentrations of the sample liquids (several concentrations of the above cooling agents). Subsequently, 5 μL of the above bacteria fluids for inoculation were stamped on the test plates, and then the test plates were cultured at 37 degrees C. overnight.
# (§6) In this way, the growth inhibition activities by (3S)-CA20, (3R)-CA20, CA1, CA5, CA15, CA55, CA MGH were examined. The minimum concentration of the cooling agent in which the growth of bacteria could not be confirmed was considered as the MIC (Minimum Inhibitory Concentration).
# (§7) The minimum concentration of the cooling agent in which the grown strain could not be confirmed was considered as the MIC (Minimum Inhibitory Concentration).
# [2] = tested on: Corynebacterium xerosis (JCM1324); assay: as above; conditions: strain JCM1324; Mueller Hinton Agar, 37 degrees C. overnight
# Description: as §1, §2, §3, §4, §5, §6, §7
# [3] = tested on: Staphylococcus aureus (JCM2151); assay: as above; conditions: strain JCM2151; Mueller Hinton Agar, 37 degrees C. overnight
# Description: as §1, §2, §3, §4, §5, §6, §7
# [4] = tested on: Staphylococcus aureus (NBRC12732); assay: as above; conditions: strain NBRC12732; Mueller Hinton Agar, 37 degrees C. overnight
# Description: as §1, §2, §3, §4, §5, §6, §7
# [5] = tested on: Staphylococcus epidermidis (JCM2414T); assay: as above; conditions: strain JCM2414T; Mueller Hinton Agar, 37 degrees C. overnight
# Description: as §1, §2, §3, §4, §5, §6, §7
# [6] = tested on: Bacillus subtilis (NBRC3134); assay: as above; conditions: strain NBRC3134; Mueller Hinton Agar, 37 degrees C. overnight
# Description: as §1
# (§8) Furthermore, the following bacteria were also used as other general aerobic bacteria: • Escherichia coli: Escherichia coli (NBRC3972) • Pseudomonas aeruginosa: Pseudomonas aeruginosa (NBRC13275) • Bacteria in intestines: Proteus vulgaris (NBRC3167) • Pneumobacillus: Klebsiella pneumoniae (NBRC13277) • Bacillus subtilis: Bacillus subtilis (NBRC3134)
# as §3, §4, §5, §6, §7
# [7] = tested on: Escherichia coli (NBRC3972); assay: as above; conditions: strain NBRC3972; Mueller Hinton Agar, 37 degrees C. overnight
# Description: as §1, §8, §3, §4, §5, §6, §7
# [8] = tested on: Klebsiella pneumoniae (NBRC13277); assay: as above; conditions: strain NBRC13277; Mueller Hinton Agar, 37 degrees C. overnight
# Description: as §1, §8, §3, §4, §5, §6, §7
# [9] = tested on: Proteus vulgaris (NBRC3167); assay: as above; conditions: strain NBRC3167; Mueller Hinton Agar, 37 degrees C. overnight
# Description: as §1, §8, §3, §4, §5, §6, §7
# [10] = tested on: Pseudomonas aeruginosa (NBRC13275); assay: as above; conditions: strain NBRC13275; Mueller Hinton Agar, 37 degrees C. overnight
# Description: as §1, §8, §3, §4, §5, §6, §7
# [11] = tested on: Actinomyces naeslundii (JCM8350); assay: Growth inhibition activity (MIC, agar) against anaerobic bacteria; conditions: strain JCM8350; Trypticase Soy Broth agar, 37 degrees C. for 3 days
# Description: as §1
# (§9) In the test for growth inhibition activity, the following strains were used: • Acne bacteria: Propionibacterium acnes (JCM6473) and (ATCC6919) • Abscess bacteria: Bacteroides fragilis (GAI5560) • Cavity-causing bacteria: Streptococcus mutans (JCM5175), Actinomyces naeslundii (JCM8350) and Actinomyces viscosus (JCM8352) • Periodontal pathogen: Fusobacterium nucleatum (JCM6328), Porphyromonas gingivalis (JCM8525), Prevotella nigrescens (JCM6322)
# (§10) The test strains were cultured in a GAM medium (Nissui Pharmaceutical Co., LTD), a Schaedler Broth (BBL) or a Trypticase Soy Broth (BBL) liquid medium, and then the grown bacteria were diluted in saline to prepare turbidity 0.5 McFarland of the bacteria fluids for inoculation. The bacteria were cultured at 37 degrees C. for 3 days under an anaerobic condition by using AnaeroPack® from MGC.
# as §4, with “cooling agent,” for “cooling agents,”, “of concentrations” for “of concentration”
# (§11) Next, 100 μL of each sample liquid was added to 10 mL of a Trypticase Soy Broth agar medium solution in a soluble state, and each agar medium solution was poured into a petri dish and solidified, to prepare the test plates. Subsequently, 5 μL of above the bacteria fluids for inoculation were stamped on the test plates, and then the test plates were cultured at 37 degrees C. for 3 days.
# (§12) The minimum concentration of the cooling agent in which the growth of bacteria could not be confirmed was considered as the MIC (Minimum Inhibitory Concentration).
# as §12
# [12] = tested on: Actinomyces viscosus (JCM8352); assay: as above; conditions: strain JCM8352; Trypticase Soy Broth agar, 37 degrees C. for 3 days
# Description: as §1, §9, §10
# as §4, with “cooling agent,” for “cooling agents,”, “of concentrations” for “of concentration”
# as §11, §12, §12
# [13] = tested on: Bacteroides fragilis (GAI5560); assay: as above; conditions: strain GAI5560; Trypticase Soy Broth agar, 37 degrees C. for 3 days
# Description: as §1, §9, §10
# as §4, with “cooling agent,” for “cooling agents,”, “of concentrations” for “of concentration”
# as §11, §12, §12
# [14] = tested on: Porphyromonas gingivalis (JCM8525); assay: as above; conditions: strain JCM8525; Trypticase Soy Broth agar, 37 degrees C. for 3 days
# Description: as §1, §9, §10
# as §4, with “cooling agent,” for “cooling agents,”, “of concentrations” for “of concentration”
# as §11, §12, §12
# [15] = tested on: Prevotella nigrescens (JCM6322); assay: as above; conditions: strain JCM6322; Trypticase Soy Broth agar, 37 degrees C. for 3 days
# Description: as §1, §9, §10
# as §4, with “cooling agent,” for “cooling agents,”, “of concentrations” for “of concentration”
# as §11, §12, §12
# [16] = tested on: Propionibacterium acnes (ATCC6919); assay: as above; conditions: strain ATCC6919; Trypticase Soy Broth agar, 37 degrees C. for 3 days
# Description: as §1, §9, §10
# as §4, with “cooling agent,” for “cooling agents,”, “of concentrations” for “of concentration”
# as §11, §12, §12
# [17] = tested on: Propionibacterium acnes (JCM6473); assay: as above; conditions: strain JCM6473; Trypticase Soy Broth agar, 37 degrees C. for 3 days
# Description: as §1, §9, §10
# as §4, with “cooling agent,” for “cooling agents,”, “of concentrations” for “of concentration”
# as §11, §12, §12
# [18] = tested on: Streptococcus mutans (JCM5175); assay: as above; conditions: strain JCM5175; Trypticase Soy Broth agar, 37 degrees C. for 3 days
# Description: as §1, §9, §10
# as §4, with “cooling agent,” for “cooling agents,”, “of concentrations” for “of concentration”
# as §11, §12, §12
Compound,MIC (Minimum Inhibitory Concentration) [1],MIC (Minimum Inhibitory Concentration) [2],MIC (Minimum Inhibitory Concentration) [3],MIC (Minimum Inhibitory Concentration) [4],MIC (Minimum Inhibitory Concentration) [5],MIC (Minimum Inhibitory Concentration) [6],MIC (Minimum Inhibitory Concentration) [7],MIC (Minimum Inhibitory Concentration) [8],MIC (Minimum Inhibitory Concentration) [9],MIC (Minimum Inhibitory Concentration) [10],MIC (Minimum Inhibitory Concentration) [11],MIC (Minimum Inhibitory Concentration) [12],MIC (Minimum Inhibitory Concentration) [13],MIC (Minimum Inhibitory Concentration) [14],MIC (Minimum Inhibitory Concentration) [15],MIC (Minimum Inhibitory Concentration) [16],MIC (Minimum Inhibitory Concentration) [17],MIC (Minimum Inhibitory Concentration) [18]
"CC(O)CC(=O)OC1CC(C)CCC1C(C)C [(3R)-CA20, menthyl 3-hydroxybutanoate]",200 ppm,100 ppm,100 ppm,200 ppm,200 ppm,200 ppm,>1600 ppm,200 ppm,>1600 ppm,>1600 ppm,200 ppm,100 ppm,100 ppm,100 ppm,200 ppm,400 ppm,200 ppm,200 ppm
"N-alkyl-p-menthane-3-carboxamide [WS-3, reference compound]",>1600 ppm,>1600 ppm,>1600 ppm,>1600 ppm,>1600 ppm,>1600 ppm,>1600 ppm,>1600 ppm,>1600 ppm,>1600 ppm,>1600 ppm,>1600 ppm,>1600 ppm,200 ppm,>1600 ppm,>1600 ppm,>1600 ppm,>1600 ppm
